Our source for the inhibition and IC50 values is patent publication US10544106B2, “Certain chemical entities, compositions, and methods” (NeuPharma, Inc., priority 2016, dated 2020).

For the assay, the target named is BTK (Homo sapiens (Human), UniProt Q06187). Description: Z'-LYTE kinase inhibition assay against BTK. Format: biochemical. The conditions noted are these: for inhibition at 0.1 µM: compound at 100 nM, ATP concentration at Km; for pIC50: series of concentrations, GraphPad Prism 5. How it is done:
Inhibitory activities of compounds against BTK, EGFR T790M, EGFR L858R, and EGFR L858R/T790M were measured using Z′-LYTE® Method from Life Technologies as briefly described in the following.
Test Compounds are screened in 1% DMSO (final) in the well. For 10 point titrations, 3-fold serial dilutions are conducted from the starting concentration. All ATP Solutions are diluted to a 4× working concentration in Kinase Buffer (50 mM HEPES pH 7.5, 0.01% BRIJ-35, 10 mM MgCl2, 1 mM EGTA). Peptide/Kinase Mixtures are diluted to a 2× working concentration in the appropriate Kinase Buffers as described below. • (i) Peptide/Kinase Mixtures for measurement of EGFR (ErbB1) L858R: • The 2×EGFR (ErbB1) L858R/Tyr 04 mixture is prepared in 50 mM HEPES pH 7.5, 0.01% BRIJ-35, 10 mM MgCl2, 4 mM MnCl2. 1 mM EGTA, 2 mM DTT. The final 10 μL Kinase Reaction consists of 0.2-1.68 ng EGFR (ErbB1) L858R and 2 μM Tyr 04 in 50 mM HEPES pH 7.5, 0.01% BRIJ-35, 10 mM MgCl2, 2 mM MnCl2, 1 mM EGTA, 1 mM DTT. After the 1 hour Kinase Reaction incubation, 5 μL of a 1:64 dilution of Development Reagent B is added. • (ii) Peptide/Kinase Mixtures for measurement of EGFR (ErbB1) T790M: The 2×EGFR (ErbB1) T790M/Tyr 04 mixture is prepared in 50 mM HEPES pH 6.5, 0.01% BRIJ-35, 10 mM MgCl2, 1 mM EGTA, 0.02% NaN3. The final 10 μL Kinase Reaction consists of 3.9-30.2 ng EGFR (ErbB1) T790M and 2 μM Tyr 04 in 50 mM HEPES pH 7.0, 0.01% BRIJ-35, 10 mM MgCl2, 1 mM EGTA, 0.01% NaN3. After the 1 hour Kinase Reaction incubation, 5 μL of a 1:64 dilution of Development Reagent B is added. • (iii) Peptide/Kinase Mixtures for measurement of EGFR (ErbB1) L858R/T790M: The 2×EGFR (ErbB1) T790M L858R/Tyr 04 mixture is prepared in 50 mM HEPES pH 6.5, 0.01% BRIJ-35, 10 mM MgCl2, 1 mM EGTA, 0.02% NaN3. The final 10 μL Kinase Reaction consists of 0.38-4.22 ng EGFR (ErbB1) T790M L858R and 2 μM Tyr 04 in 50 mM HEPES pH 7.0, 0.01% BRIJ-35, 10 mM MgCl2, 1 mM EGTA, 0.01% NaN3. After the 1 hour Kinase Reaction incubation, 5 μL of a 1:64 dilution of Development Reagent B is added. • (iv) Peptide/Kinase Mixtures for measurement of BTK: The 2×BTK/Tyr 01 mixture is prepared in 50 mM HEPES pH 7.5, 0.010/BRIJ-35, 10 mM MgCl2, 1 mM EGTA. The final 10 μL Kinase Reaction consists of 1.04-10.4 ng BTK and 2 μM Tyr 01 in 50 mM HEPES pH 7.5, 0.01% BRIJ-35, 10 mM MgCl2, 1 mM EGTA. After the 1 hour Kinase Reaction incubation, 5 μL of a 1:256 dilution of Development Reagent B is added.
Reaction starts by 30-second shaking of mixture consisting of 2.5 μL 4× test compound, 5 μL 2× kinase reaction mixture and 2.5 μL 4×ATP Solution on Bar-coded Corning, low volume NBS, black 384-well plate (Corning Cat. #3676). Then the mixture is incubated for 60-minute at room temperature for the kinase reaction, followed by addition of 5 μL of a 1:1024 dilution of development reagent A and 30-second plate shake. The mixture is then incubated for another 60-minute at room temperature for development reaction. Finally fluorescence is read by plate reader.
The Z′-LYTE assay was carried out with ATP concentration at Km. The scale utilized in Tables 2-6 is as follows: ++ more than 50% inhibition and + less than 50% inhibition.
To determine IC50 of a compound against a kinase, a series of concentrations of the compound were tested for the inhibition. IC50 was calculated by plotting the concentration of compound vs the percentage of inhibition in treated wells using GraphPad Prism 5. […] The scale utilized in Table 7 is as follows: ++ less than 100 nM and + greater than 100 nM.

pIC50: −log10 of the molar value. Where only a bound is given, the exact number is not on record here.

BTK, sequence (Q06187 whole entry): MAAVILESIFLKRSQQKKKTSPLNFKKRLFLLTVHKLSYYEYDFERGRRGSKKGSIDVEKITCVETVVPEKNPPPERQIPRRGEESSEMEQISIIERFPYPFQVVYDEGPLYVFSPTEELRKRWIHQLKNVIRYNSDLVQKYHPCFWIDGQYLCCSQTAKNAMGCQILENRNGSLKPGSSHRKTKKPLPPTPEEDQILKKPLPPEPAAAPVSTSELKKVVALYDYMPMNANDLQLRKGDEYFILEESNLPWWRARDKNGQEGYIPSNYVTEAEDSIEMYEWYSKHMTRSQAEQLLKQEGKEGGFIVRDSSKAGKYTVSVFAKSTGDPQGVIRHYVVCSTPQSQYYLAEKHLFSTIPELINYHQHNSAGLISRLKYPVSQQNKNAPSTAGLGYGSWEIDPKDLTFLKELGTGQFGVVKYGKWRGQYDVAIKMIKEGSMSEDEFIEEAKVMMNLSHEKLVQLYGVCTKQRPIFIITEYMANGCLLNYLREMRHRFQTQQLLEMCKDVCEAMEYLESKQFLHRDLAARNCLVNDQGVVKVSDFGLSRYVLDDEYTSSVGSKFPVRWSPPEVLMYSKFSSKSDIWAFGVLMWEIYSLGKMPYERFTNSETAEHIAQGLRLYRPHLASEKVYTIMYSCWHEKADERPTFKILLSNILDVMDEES

`C=CC(=O)Nc1cccc(-c2cc(-c3ccc(C(=O)Nc4cc(C#N)ccn4)cc3)cc3cncnc23)c1` [C109, 4-(8-(3-acrylamidophenyl)quinazolin-6-yl)-N-(4-cyanopyridin-2-yl)benzamide]: the inhibition (as a rule, the drop in the measured response relative to a control, in per cent) at 0.1 µM was under 50%. For the compound `C=CC(=O)Nc1cccc(-c2cc(-c3ccc(Oc4cc(C5CC5)ccn4)cc3F)cc3cncnc23)c1` [C198, N-(3-(6-(4-((4-cyclopropylpyridin-2-yl)oxy)-2-fluorophenyl)quinazolin-8-yl)phenyl)acrylamide], the inhibition at 0.1 µM was over 50% and the pIC50 (in general, the negative decadic logarithm of the IC50, by convention in mol/L) is over 7.00. Compound `C=CC(=O)N1CCC(c2cc(-c3ccccc3F)cc3cncnc23)C1` (stereo not shown) [C084, 1-(3-(6-(2-fluorophenyl)quinazolin-8-yl)pyrrolidin-1-yl)prop-2-en-1-one] gave an inhibition at 0.1 µM of under 50%. `C=CC(=O)N1CCC(c2cc(-c3ccc(C(=O)Nc4cc(OC)ccn4)cc3)n3cnccc23)C1` (stereo not shown) [C162, 4-(5-(1-acryloylpyrrolidin-3-yl)pyrrolo[1,2-c]pyrimidin-7-yl)-N-(4-methoxypyridin-2-yl)benzamide]: the inhibition at 0.1 µM is under 50%. On to `CC#CC(=O)N1CCC(c2nc(-c3ccc(C(=O)Nc4ccccn4)c(F)c3)n3c(N)nccc23)C1` (stereo not shown) [C231, 4-(5-amino-1-(1-(but-2-ynoyl)pyrrolidin-3-yl)imidazo[1,5-c]pyrimidin-3-yl)-2-fluoro-N-(pyridin-2-yl)benzamide], for which the pIC50 is over 7.00. Compound `C=CC(=O)Nc1cccc(-c2cc(-c3ccc(C(=O)Nc4ccccn4)c(F)c3)cc3cncnc23)c1` [C132, 4-(8-(3-acrylamidophenyl)quinazolin-6-yl)-2-fluoro-N-(pyridin-2-yl)benzamide] gave an inhibition at 0.1 µM of over 50% and a pIC50 of over 7.00. As for `C=CC(=O)N1CCCC(c2ccc(-c3ccc(C(=O)Nc4ccccn4)cc3)c3cncnc23)C1` (stereo not shown) [C037, 4-(8-(1-acryloylpiperidin-3-yl)quinazolin-5-yl)-N-(pyridin-2-yl)benzamide], the inhibition at 0.1 µM is under 50%. The compound `C=CC(=O)N1CCC(c2cc(-c3ccc(C(=O)Nc4cccc(C)c4)nc3)cc3cncnc23)C1` (stereo not shown) [C080, 5-(8-(1-acryloylpyrrolidin-3-yl)quinazolin-6-yl)-N-(m-tolyl)picolinamide] gave an inhibition at 0.1 µM of under 50%.

Turning to `C=CC(=O)Nc1cccc(-c2cc(-c3ccc(Oc4cccnc4)cc3)cc3cncnc23)c1` [C117, N-(3-(6-(4-(pyridin-3-yloxy)phenyl)quinazolin-8-yl)phenyl)acrylamide], the inhibition at 0.1 µM was over 50% and the pIC50 is over 7.00. Consider `C=CC(=O)N1CCC(c2cc(-c3ccc(C(=O)Nc4ccccc4)cc3)cc3cncnc23)C1` (stereo not shown) [C062, 4-(8-(1-acryloylpyrrolidin-3-yl)quinazolin-6-yl)-N-phenylbenzamide], for which the inhibition at 0.1 µM is under 50%. Regarding `C=CC(=O)Nc1cccc(-c2cc(-c3ccc(C(=O)Nc4ccccn4)nc3)cc3cncnc23)c1` [C069, 5-(8-(3-acrylamidophenyl)quinazolin-6-yl)-N-(pyridin-2-yl)picolinamide], the inhibition at 0.1 µM is over 50%.

Regarding `C=CC(=O)N1CCC(c2cc(-c3ccc(C(=O)Nc4ncccc4F)cc3)c(N)c3cncnc23)C1` (stereo not shown) [C215, 4-(8-(1-acryloylpyrrolidin-3-yl)-5-amino-quinazolin-6-yl)-N-(3-fluoropyridin-2-yl)benzamide], the inhibition at 0.1 µM is under 50%. For `C=CC(=O)N1CCCC(c2cc(-c3ccc(Oc4ccccc4)cc3)cc3cnc(N)nc23)C1` (stereo not shown) [C028, 1-(3-(2-amino-6-(4-phenoxyphenyl)quinazolin-8-yl)piperidin-1-yl)prop-2-en-1-one], the inhibition at 0.1 µM was over 50% and the pIC50 is over 7.00. On to `C=CC(=O)N1CCC(c2nc(-c3ccc(Oc4cc(C(F)(F)F)ccn4)c(F)c3)n3c(N)nccc23)C1` (stereo not shown) [C206, 1-(3-(5-amino-3-(3-fluoro-4-((4-(trifluoro-methyl)pyridin-2-yl)oxy)phenyl)imidazo[1,5-c]pyrimidin-1-yl)pyrrolidin-1-yl)prop-2-en-1-one], for which the inhibition at 0.1 µM is over 50% and the negative logarithm of the IC50 (pIC50) is over 7.00. `C=CC(=O)Nc1cccc(-c2cc(-c3ccc(Oc4ccccn4)cc3)c(N)c3cncnc23)c1` [C179, N-(3-(5-amino-6-(4-(pyridin-2-yloxy)phenyl)quinazolin-8-yl)phenyl)acrylamide] had an inhibition at 0.1 µM of under 50%. Take `C=CC(=O)N1CCC(c2ccc(-c3ccc(C(=O)Nc4ccccn4)cc3)c3c(N)ncnc23)C1` (stereo not shown) [C056, 4-(8-(1-acryloylpyrrolidin-3-yl)-4-amino-quinazolin-5-yl)-(N-pyridin-2-yl)benzamide]: the inhibition at 0.1 µM was under 50%.

For the compound `C=CC(=O)N1CCCC(c2nc(-c3ccc(Oc4ncccc4C#N)c(F)c3)n3c(N)nccc23)C1` (stereo not shown) [C234, 2-(4-(1-(1-acryloylpiperidin-3-yl)-5-amino-imidazo[1,5-c]pyrimidin-3-yl)-2-fluorophenoxy)nicotinonitrile], the pIC50 was over 7.00. Regarding `C=CC(=O)Nc1cccc(-c2cc(-c3ccccc3)cc3cnc(-c4ccccc4)nc23)c1` [C001, N-(3-(2,6-diphenylquinazolin-8-yl)phenyl)acrylamide], the inhibition at 0.1 µM was under 50%. In the case of `CC#CC(=O)N1CCC(c2nc(-c3ccc(Oc4ncccc4C(F)(F)F)cc3)n3c(N)nccc23)C1` (stereo not shown) [C219, 1-(3-(5-amino-3-(4-((3-(trifluoromethyl)pyridin-2-yl)oxy)phenyl)imidazo[1,5-c]pyrimidin-1-yl)pyrrolidin-1-yl)but-2-yn-1-one], the inhibition at 0.1 µM was under 50%. Compound `C=CC(=O)Nc1cccc(-c2cc(-c3ccccc3)cc3cncnc23)c1` [C004, N-(3-(6-phenylquinazolin-8-yl)phenyl)acrylamide] gave an inhibition at 0.1 µM of over 50% and a pIC50 of over 7.00. `C=CC(=O)Nc1cccc(-c2cc(-c3ccccc3C#N)cc3cncnc23)c1` [C075, N-(3-(6-(2-cyanophenyl)quinazolin-8-yl)phenyl)acrylamide] had an inhibition at 0.1 µM of over 50% and a pIC50 of over 7.00.

As for `C=CC(=O)N1CCC(c2cc(-c3ccc(C(=O)Nc4cc(C5CC5)ccn4)cc3)cc3cncnc23)C1` (stereo not shown) [C123, 4-(8-(1-acryloylpyrrolidin-3-yl)quinazolin-6-yl)-N-(4-cyclopropylpyridin-2-yl)benzamide], the inhibition at 0.1 µM is over 50%. Still for that read-out and setting: with `C=CC(=O)Nc1cccc(-c2cc(-c3ccc(C(=O)Nc4ccccc4)nc3)cc3cnc(N)nc23)c1` [C059, 5-(8-(3-acrylamidophenyl)-2-aminoquinazolin-6-yl)-N-phenylpicolinamide] the figure was under 50%. `C=CC(=O)Nc1cccc(-c2cc(-c3ccc(C(=O)Nc4cc(C(F)(F)F)ccn4)c(OC)c3)cc3cncnc23)c1` [C145, 4-(8-(3-acrylamidophenyl)quinazolin-6-yl)-2-methoxy-N-(4-(trifluoromethyl)pyridin-2-yl)benzamide] came in with an inhibition at 0.1 µM of under 50%.
